Laboratory results reported in patent US6710083B2, “Method of treating palmar and plantar fibromatosis” (priority 2002, dated 2004).

How the values were obtained:
[1] = tested on: palmar fibromatosis (Dupuytren's contracture); assay: Clinical treatment of patients with palmar fibromatosis (Dupuytren's contracture) with oral Accutane: initial dosage then maintenance dosage; type: in vivo, human
Method: (§1) Example 1 to 3 illustrate clinical effectiveness of the above described treatment method. An initial treatment and a maintenance treatment as described above were prescribed to the patients. It is noted that the patients described in the Examples were in the average weight range, therefore, an average dosage of 40 mg was used.
(§2) The patient was treated with orally administering Accutane® (Hoffmann-La Roche Inc., Nutley, New Jersey) about 40 mg daily for 14 days. Then the dosage was decreased to a maintenance dosage of 40 mg about twice a week for twelve months.
(§3) The patient was treated with orally administering Accutane® about 40 mg daily for 14 days. Then the dosage was decreased to 40 mg about twice a week for eight months.
(§4) The patient was placed on Accutane® 40 mg daily for two weeks.

[2] = Side effects, tolerability and laboratory values during the clinical treatment of palmar fibromatosis patients; type: in vivo, human
Method: as §1, §2, §3, §4

[3] = Example 2 patient, eight months of therapy

With `CC1=C(/C=C/C(C)=C/C=C/C(C)=C\C(=O)O)C(C)(C)CCC1` [Accutane, 13-cis retinoic acid] the “dimple overhead of the third methocarpal bone” value ([1]; Example 1 patient, both hands, after twelve months of therapy) was “disappeared”, the “fibrotic band, right hand” value ([1]; Example 1 patient, middle finger, 4 mm before treatment, 40 mg daily 14 days, then 40 mg about twice a week, after twelve months) was 2 mm and the “fibrotic band, left hand” value ([1]; Example 1 patient, middle finger, oral 40 mg daily for 14 days, then 40 mg about twice a week, after twelve months) was “completely disappeared”. The “pain and tenderness in the flexor tendon area of the hands” value ([1]; Example 1 patient, patient-described, after twelve months of therapy) was “completely abated”, the “range of fixed flexion of the left middle finger” value ([1]; Example 1 patient, 7 degree before treatment as printed, after twelve months of therapy) was “none” and the “fixed flexion of the right middle finger” value ([1]; Example 1 patient, fixed 15 degree before treatment as printed, after twelve months of therapy) was 3 degree. For the same molecule, the “fibrotic ridge of the left hand” value ([1]; Example 2 patient, advanced disease, 40 mg daily 14 days, then 40 mg about twice a week for eight months) was “reduced in scope and size”, the “ring finger's disposition from the flexed position” value ([1]; Example 2 patient, left hand, about 90 degree before treatment, eight months of therapy) was “about 70 degree” and the “tenderness of the left hand caused by the contracture” value ([1]; Example 2 patient, patient-reported, eight months of therapy) was “less tender”. For the same molecule, the “tenderness in the flexor tendon area” value ([1]; Example 3 patient, patient-described, nine months of treatment) was “less tenderness”, the “thickness of the fibrotic band” value ([1]; Example 3 patient, right hand, 40 mg daily two weeks, then 40 mg about twice a week for nine months) was “reduced” and the “restriction of extension of the ring finger” value ([1]; Example 3 patient, right hand, nine months of treatment) was “lessened”. The “deflection of the right hand ring finger” value ([1]; Example 3 patient, 30 degree before treatment, nine months of treatment) was 20 degree, the “further progression of the contracture” value ([1]; patients with either early stage disease or advanced conditions (general statement)) was “inhibits further progression of the contracture” and the adverse side effects ([2]; Example 1 patient, 40 mg daily 14 days, then 40 mg about twice a week for twelve months) was “No adverse side effects were noted other than drying of lips”. The blood chemistries ([2]; Example 1 patient, low maintenance dosage) was “remained normal”, the laboratory abnormality [2, 3] was “No laboratory abnormality was observed” and the musculoskeletal pain [2, 3] was “some musculoskelatal pain, which diminished after the third month of the treatment”. The tolerability ([2]; Example 2 patient, lower maintenance dosage) was “well tolerated” and the “serious adverse side effects” value ([2]; patients diagnosed with Dupytren's contracture, described treatment (general statement)) was “no serious adverse side effects were observed”.
